These results are taken from ChEMBL document CHEMBL1148983, “A diketopiperazine dimer from a marine-derived isolate of Aspergillus niger” (J Nat Prod, 2004).

SMILES strings stand for the structures. pIC50: −log10 of the molar value.

Experiment [1] can be described thus: Inhibition of mammalian 5'-Cap- RNA dependent translation in human HeLa cells after 60 mins by luciferase reporter gene assay. Particulars: 1 h. Type of experiment: functional, cell-based.
Experiment [2] in a line: Inhibition of viral IRES-mediated translation in human HeLa cells after 60 mins by luciferase reporter gene assay. In kind it is functional, cell-based. Particulars: 1 h. On the technique in general: A reporter such as luciferase makes a cellular process visible.

By pIC50 is commonly meant −log10 of the IC50, conventionally taken in molar units. `COc1cc(O)cc2cc3oc(C)cc(=O)c3c(O)c12`: the negative logarithm of the IC50 (pIC50) is 4.10 in experiment [1] and 4.36 in experiment [2].

Turning to `COc1cc(O)cc2cc(O)c3c(=O)cc(C)oc3c12`, the negative-log IC50 (pIC50) in experiment [1] and in experiment [2] was below 4.00 each time.

Turning to `CC(C)C[C@H]1NC(=O)[C@H]2C[C@@]3([C@@]45C[C@@H]6C(=O)N[C@H](C(C)C)C(=O)N6[C@@H]4Nc4ccccc45)c4ccccc4N[C@H]3N2C1=O`, the pIC50 in experiment [1] and in experiment [2] was below 4.00 throughout.

For `COc1cc(C)c2c(OC)cc(=O)oc2c1-c1c(O)cc(C)c2c(OC)cc(=O)oc12` [DEMETHYLKOTANIN], the pIC50 in experiment [1] and in experiment [2] was below 4.00 throughout.
